Measurements published in patent USRE30511E, “Imidazo[1,5-d]-as-triazine-4(3H)-ones and thiones” (American Cyanamid Company, priority 1979, dated 1981).

Legend:
[1] = system: Mouse Skin Phosphodiesterase; test: Mouse skin phosphodiesterase (PDE) inhibition test; format: biochemical, Hairless mice; set-up: key: Active: A compound is considered active if it inhibits more than theophylline, that is, to 50% of control at 1 mM concentration of compound, or to 80% of control of 0.05 mM concentration of compound; conditions: 10 ug./ml. final concentration; 30° C. for 15 minutes
[2] = system: Monkey Lung Cyclic AMP Phosphodiesterase; test: Monkey lung phosphodiesterase inhibition test; format: biochemical, African green monkeys; conditions: usually 1 mM or 0.1 mM; pH 7.4, 25° C. for 20 minutes
Procedure: Lung parenchyma of African green monkeys is homogenized in a Waring blender and centrifuged at 40,000×gravity for 20 minutes. The supernatant is brought to 70% saturation of ammonium sulfate, centrifuged and the pellet redissolved and dialysed, before aliquoting and storage at --20° C.
Phosphodiesterase is assayed by the method of Thompson and Appleman, ibid. An assay tube contains a 0.4 ml. solution of the following: 45 mM tris-HCl buffer, pH 7.4, […], 0.1 mM dithioerythritol, 10^-6 M cyclic AMP, 0.1 uCi [^3 H]-cyclic AMP, and test compound at the desired concentration (usually 1 mM or 0.1 mM). Compounds not readily soluble in water are dissolved at 40 times the desired concentration in methanol, and diluted 20 times with water. If the compound is not dissolved at this time, it is suspended by sonication before being diluted 1:2 into the assay tube. In this case the activity of the enzyme in the presence of the compound is compared to a solvent control (2.5% methanol), although the solvent alone has negligible effect. The reaction is initiated by addition of enzyme and proceeds at 25° C. for 20 minutes. It is terminated by incubation at 100° C. for 2 minutes. The tubes are cooled to 25° C., 0.8 ug of 5'-nucleotidase (Crotolu adamantus toxin) is added to each and the tubes incubated at 25° C. for 30 minutes. A 1 milliliter suspension of Bio-Rad Labs. AGIX8 (about 0.5 ml. of settled resin) is added, the tubes centrifuged at 900×gravity for 10 minutes and an aliquot of supernatant removed for scintillation counting. The inhibition by the test compound is calculated as: [formula] where `compound` is the cpm in the presence of compound, `control` is the cpm in the absence of compound, and `blank` is the cpm in the absence of enzyme. […] For this reason, control tubes which contained [^3 H]-AMP instead of [^3 H]-cyclic AMP are run in parallel. A correction of the apparent phosphodiesterase activity is made for the rare compound which inhibited the hydrolysis of AMP.

[3] = Dispersion of aerosol suspension on warming after storage; format: physicochemical; conditions: aerosol suspension in dichlorodifluoromethane with sorbitan trioleate, sonified
Procedure: The active ingredient and sorbitan trioleate are placed in a beaker and the dichlorodifluoromethane is added at -40° C. whereupon a suspension is formed. The mixture is sonified, that is, treated with a Sonifier, manufactured by the Branson Sonic Power Co. of Danbury, Conn., as model LS-75 at a current input of 9 amperes for 2 minutes. Additional cold dichlorodifluoromethane is added as necessary to keep the volume at 100 ml. The mixture is uniformly dispersed, and has increased stability resulting from the sonification. Each of six 19 ml. stainless steel containers are filled with 15 ml. of the cold mixture, then valves are inserted and sealed in place.

| Mouse Skin Phosphodiesterase (A) [1] | Monkey lung phosphodiesterase inhibition (B) [2] | dispersion of the aerosol suspension [3] | Compound |
| --- | --- | --- | --- |
| Active | – | – | Cc1nc(-c2ccccc2)n2c(=S)[nH]ncc12 [8-Methyl-6-phenyl-imidazo[1,5-d]-as-triazine-4-(3H)-thione] |
| Active | Active | – | Cc1nc(Cc2ccccc2)n2c(=S)[nH]ncc12 [6-Benzyl-8-methyl-imidazo[1,5-d]-as-triazine-4(3H)-thione] |
| Active | – | – | Cc1nc(Cc2ccccc2)n2c(=O)[nH]ncc12 [6-Benzyl-8-methyl-imidazo[1,5-d]-as-triazin-4(3H)-one] |
| Active | Active | – | O=c1[nH]ncc2c(Cl)nc(-c3ccccc3)n12 [8-Chloro-6-phenyl-imidazo[1,5-d]-as-triazin-4(3H)-one] |
| Active | Active | – | O=c1[nH]ncc2c(Br)nc(-c3ccccc3)n12 [8-Bromo-6-phenyl-imidazo[1,5-d]-as-triazin-4(3H)-one] |
| Active | Active | – | Cc1nc(-c2ccccc2)n2c(=O)[nH]ncc12 [8-Methyl-6-phenyl-imidazo[1,5-d]-as-triazin-4(3H)-one] |
| Active | – | – | CCCOc1ccccc1-c1ncc2cn[nH]c(=O)n12 [6-o-Propoxyphenyl-imidazo[1,5-d]-as-triazine-4(3H)-one] |
| Active | – | – | O=c1[nH]ncc2cnc(-c3ccccc3)n12 [6-Phenyl-imidazo[1,5-d]-as-triazin-4(3H)-one] |
| Active | – | – | O=c1[nH]ncc2cnc(Cc3ccccc3)n12 [6-Benzyl-imidazo[1,5-d]-as-triazin-4(3H)-one] |

The next lines start with the compound.

| Compound | Mouse Skin Phosphodiesterase (A) [1] | Monkey lung phosphodiesterase inhibition (B) [2] | dispersion of the aerosol suspension [3] |
| --- | --- | --- | --- |
| CCCc1ncc2cn[nH]c(=S)n12 [6-n-Propyl-imidazol[1,5-d]-as-triazine-4(3H)-thione] | Active | Active | – |
| CCCc1ncc2cn[nH]c(=O)n12 [6-n-Propyl-imidazo[1,5-d]-as-triazin-4(3H)-one] | Active | – | – |
| CCCc1nc(C)c2cn[nH]c(=S)n12 [8-Methyl-6-n-propyl-imidazolo[1,5-d]-as-triazine-4(3H)-thione] | Active | Active | – |
| Cc1nc(C(C)(C)C)n2c(=O)[nH]ncc12 [6-tert-Butyl-8-methyl-imidazo[1,5-d]-as-triazin-4(3H)-one] | Active | Active | – |
| Cc1nc(C)n2c(=S)[nH]ncc12 [6,8-Dimethyl-imidazo[1,5-d]-as-triazine-4-(3H)-thione] | Active | – | – |
| CC(C)c1nc(Cl)c2cn[nH]c(=S)n12 [8-chloro-6-isopropyl-imidazo[1,5-d]-as-triazine-4(3H)-thione] | – | – | remains dispersed |
| Cc1ncn2c(=S)[nH]ncc12 [8-Methyl-imidazo[1,5-d]-as-triazine-4-(3H)-thione] | Active | – | – |
| CC(C)(C)c1ncc2cn[nH]c(=O)n12 [6-tert-Butyl-imidazo[1,5-d]-as-triazin-4(3H)-one] | Active | – | – |
| Cc1nc(C)n2c(=O)[nH]ncc12 [6,8-Dimethyl-imidazo[1,5-d]-as-triazin-4(3H)-one] | Active | Active | – |
| Cc1ncn2c(=O)[nH]ncc12 [8-Methyl-imidazo[1,5-d]-as-triazin-4(3H)-one] | Active | – | – |
